The values below are quoted from earlier work in US20160101114A1, “ARTICLES AND METHODS FOR PREVENTING AND TREATING DERMATOLOGIC ADVERSE EVENTS” (SLOAN-KETTERING INSTITUTE FOR CANCER RESEARCH, priority 2013, published 2016).

The conditions of this data set: cancer therapies with multikinase inhibitors.

For `COc1cc2c(Nc3ccc(Br)cc3F)ncnc2cc1OCC1CCN(C)CC1` [vandetanib], the “all grade incidence of hand foot syndrome” value (shortened to “all grade incidence”) is 5%.
For `CNC(=O)c1cc(Oc2ccc(NC(=O)Nc3ccc(Cl)c(C(F)(F)F)c3)cc2)ccn1` [sorafenib], the “all grade incidence” value is reported as 60%.
For the compound `CNC(=O)c1cc(Oc2ccc(NC(=O)Nc3ccc(Cl)c(C(F)(F)F)c3)c(F)c2)ccn1` [regorafenib], the “all grade incidence” value is given as 46%.
Regarding ziv-aflibercept, the “all grade incidence” value is listed as 2%.
For `COc1cc2nccc(Oc3ccc(NC(=O)C4(C(=O)Nc5ccc(F)cc5)CC4)cc3)c2cc1OC` [cabozantinib], the “all grade incidence” value is listed as 50%.
In the case of `Cc1ccc(Nc2nccc(N(C)c3ccc4c(C)n(C)nc4c3)n2)cc1S(N)(=O)=O` [pazopanib], the “all grade incidence” value was 5%.
As to `CCN(CC)CCNC(=O)c1c(C)[nH]c(/C=C2\C(=O)Nc3ccc(F)cc32)c1C` [sunitinib], the “all grade incidence” value is recorded as 30%.
As to `CNC(=O)c1ccccc1Sc1ccc2c(/C=C/c3ccccn3)n[nH]c2c1` [axitinib], the “all grade incidence” value is listed as 29%.
